In EP4527379A1, “LIPIDS CONTAINING AN OLIGOGLYCEROL GROUP” (Thermosome GmbH, priority 2023, dated 2025):

How the values were obtained:
[1] = LNP formulations with the cationizable lipid (Carrasco et al. 2021); cited from earlier work
[2] = Indicative storage stability studies using HPLC/CAD; assay type: physicochemical
Method: The batch was investigated in indicative storage stability studies using HPLC/CAD. CLG2 is stable in its powder form for at least 1 year when stored at -20°C. In contrast to NLG2, CLG2 could also be stored in organic solvents (e.g., chloroform) at temperature ranges from -20 to 2-8°C for at least 9 months.

[3] = Solubility and chemical stability in organic solvents; assay type: physicochemical
Method: CLG2 is readily soluble in chloroform as a clear solution with at least 10 mg/ml.

CCCCC/C=C\C/C=C\CCCCCCCCC(CCCCCCCC/C=C\C/C=C\CCCCC)OC(=O)CCCN(C)C [DLin-MC3-DMA]
pKa [1]: 6.57

CCCCCCCCCCCCCCCC(=O)OCC(C[N+](C)(C)CC(O)COCC(O)CO)OC(=O)CCCCCCCCCCCCCCC (centres unmarked) [CLG2]
could be stored in organic solvents ([2]; organic solvents (e.g., chloroform), -20 to 2-8°C): at least 9 months | stable in its powder form ([2]; powder, stored at -20°C): at least 1 year | solubility ([3]; chloroform, organic solvent or mixture, read-out: soluble in chloroform as a clear solution): ≥ 10000 µg/mL | decomposition in ethanol ([3]; ethanol, compared with methanol and isopropanol): less pronounced
